Laboratory results taken from patent EP4702986A1, “POLYPEPTIDE AND USE THEREOF” (Biocells (Beijing) Biotech Co., Ltd., priority 2023, dated 2024).
Entries after “also recorded” stand apart in the source; their conditions may differ. Where two headings read alike, the source gives them in different places. Numbered stars: 1 amine (or outer) side, 2 acyl side, 3 side chain; on linkers, the order of the positions; unused ones are H or OH. Bridge positions count the residues as written; N and C are the ends. Side chains are listed from the residue outwards. Peptide text beside a SMILES is read from it. * marks the point of attachment. C18 diacid = O=C(O)CCCCCCCCCCCCCCCCC(=O)*; γGlu = O=C(O)[C@H](CCC(=O)[*:2])N[*:1]; Ethylenediamine = C(CN[*:2])N[*:1]; Palmitoyl = CCCCCCCCCCCCCCCC(=O)*; Fumaroyl = O=C(O)/C=C/C(=O)*; Suc = O=C(CCC(=O)[*:2])[*:1]; Lauroyl = CCCCCCCCCCCC(=O)*; AEEA = NCCOCCOCC(=O)O

Tests used:
[1] = system: male SD rats; conditions: one animal per row, observed 48 hours
Protocol: In an experiment about acute toxicity of subcutaneous administration, male SD rats weighing 200-230 g were dosed in a range between 60 µg/Kg and 960 µg/Kg. Observation was made for 48 hours after subcutaneous administration. Toxic response and mortality of the rats were preliminarily observed, and time of death and doses without mortality were recorded. The level of acute toxicity of the polypeptides was preliminarily determined based on the doses without mortality.

[2] = Determination of half-lives of polypeptides (plasma, LC-MS); conditions: for half-life: C57 BL/6, mouse, plasma, iv; for AUClast 0-30 min: C57 BL/6 mice, dosage per compound 0.48, 0.96 or 1 mpk; for AUClast 0-30 min / T1/2: i.v.; for T1/2: Table 1, mice
[3] = molecular target: T1, human ETA receptor (Homo sapiens, UniProt P25101); assay: Selectivity of polypeptides on human ETA receptor (IP-One Gq kit, % of positive control ET1); type: cell-based; conditions: read-out: hETAR agonist activity, percentage of activity relative to ET1
T1 construct: expressed in transfected cells; host or cells: 293T-17 cells, transient transfection
T1 sequence (P25101 21-427): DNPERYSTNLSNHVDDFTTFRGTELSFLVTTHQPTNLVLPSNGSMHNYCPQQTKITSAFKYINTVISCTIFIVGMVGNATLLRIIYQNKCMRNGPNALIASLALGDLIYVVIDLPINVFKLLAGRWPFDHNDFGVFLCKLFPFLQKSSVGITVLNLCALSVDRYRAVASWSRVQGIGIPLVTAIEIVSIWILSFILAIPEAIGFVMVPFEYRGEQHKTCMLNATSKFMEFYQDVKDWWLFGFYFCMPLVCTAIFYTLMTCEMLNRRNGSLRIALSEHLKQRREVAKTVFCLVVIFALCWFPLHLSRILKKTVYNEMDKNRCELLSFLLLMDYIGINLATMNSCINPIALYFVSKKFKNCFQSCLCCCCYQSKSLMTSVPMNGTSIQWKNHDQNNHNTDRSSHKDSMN
Protocol: 293T-17 cells were seeded at a density of 650,000 cells per well in a 6-well plate and cultured overnight in an incubator at 37°C and 5% CO2. Afterward, the cells were transfected with an expression vector, PCDNA3.1-hETA which contained a human ETA receptor gene, at a plasmid concentration of 2.5 µg per well. The cells were further cultured for 48 hours, and green fluorescence expression was observed under a fluorescence microscope. The cells were then digested with trypsin and counted. The activity of compounds on the human ETA receptor was determined with the IP-One Gq kit from Cisbio Bioassays. The cells were suspended in Stim Buffer provided in the kit and the cell suspension was added to a 96-well detection plate at 7 µL cell suspension (containing 30,000 cells) per well. The polypeptides to be screened for activity (prepared according to the Preparation Example of the invention) and polypeptide human endothelin ET1 as positive control were dissolved in Stim B to be at a concentration of 2×, and 7 µL was added to the test cells, while 7 µL of PBS solution was added to the cells in the negative control wells. Human endothelin ET1 (ET1: […] (C1-C15,C3-C11)) set forth in SEQ ID No. 85 was used as the positive control polypeptide. The plate was sealed and incubated at 37°C for 1 h in a cell culture incubator. Detection wells, positive control wells, and PBS control wells were each added with 3 µL of IP1 d2 working solution and 3 µL of IP1 Tb cryptotate Antibody working solution. The plate was sealed and incubated in the dark at room temperature (25°C±5°C) for 1 h. The plate seal was removed, and the […] at 665 nm and 620 nm was measured with an ID5 microplate reader. The ratio of the acceptor emission signal to the donor emission signal, i.e., the value of (signal at 665 nm/signal at 620 nm)×10^4, was calculated for each well. With F3 representing the average value of values of signal at 665 nm/signal at 620 nm determined for the test sample at a specific concentration, F5 representing the average value of values of signal at 665 nm/signal at 620 nm determined for the positive control human endothelin ET1 at the same concentration, and T3 representing the average value of values of signal at 665 nm/signal at 620 nm determined for the PBS negative control, the percentage of activity of the test polypeptide sample relative to the positive control sample ET1 = (F3-T3)×100/(F5-T3) (see Table 6). hETA sequence (NCBI accession number L06622.1).

[4] = system: male SD rats; assay: in vivo; conditions: intravenous (tail vein) 240 µg/Kg; one animal per row; observed 24 hours
Protocol: In an experiment about acute toxicity of intravenous administration, male SD rats weighing 200-230 g were dosed in a range between 480 µg/Kg and 30 µg/Kg via tail vein injection in a descending order of dosage. […] Toxic response and mortality of the rats were preliminarily observed, and time of death and doses without mortality of the rats were recorded. The level of acute toxicity of the polypeptides was preliminarily determined based on the doses without mortality.

| Structure (SMILES) | Observations of Animal Status ([1]; subcutaneous 240 µg/Kg) | Observations of Animal Status ([1]; subcutaneous 360 µg/Kg) | Observations of Animal Status ([1]; subcutaneous 480 µg/Kg) | half-life [2] [min] | AUClast 0-30 min [2] [ng·h/mL] | T1/2 [2] | activation at 10 µM [3] [%] | activation at 100 µM [3] [%] | Observations of Animal Status [4] |
| --- | --- | --- | --- | --- | --- | --- | --- | --- | --- |
| CCCCCCCCCCCC(=O)N[C@@H](CCC(=O)O)C(=O)NCCOCCOCC(=O)NCCCC[C@H](NC(=O)[C@H](Cc1c[nH]cn1)NC(=O)[C@H](C)NC(=O)[C@H](Cc1ccccc1)NC(=O)[C@H](Cc1ccc(O)cc1)NC(=O)[C@@H](NC(=O)[C@H](C)NC(=O)[C@H](CCC(=O)O)NC(=O)[C@H](CCC(=O)O)NC(=O)[C@H](CC(=O)O)NC(=O)/C=C/C(=O)O)C(C)C)C(=O)N[C@@H](CC(=O)O)C(=O)N[C@H](C(=O)N[C@H](C(=O)N[C@@H](Cc1c[nH]c2ccccc12)C(=O)O)[C@@H](C)CC)C(C)C [BX238-Na] (Fumaroyl-DEEAVYFAHK([AEEA-Glu-Lauroyl])DVIW-OH) | No obvious abnormal reaction observed within 48 hours | No obvious abnormal reaction observed within 48 hours | Developed rapid breathing at 50 minutes after administration, showed no willingness to move, recovered 2 hours after administration; also recorded: Developed rapid breathing at 21 minutes after administration, died at 26 minutes after administration; also recorded: Developed rapid breathing at 10 minutes after administration, died at 47 minutes after administration; also recorded: Developed rapid breathing at 45 minutes after administration, showed no willingness to move, recovered 2 hours after administration; also recorded: Developed rapid breathing at 20 minutes after administration, died at 55 minutes after administration | – | – | – | – | – | – |
| CCCCCCCCCCCCCCCC(=O)NCCOCCOCC(=O)NCCOCCOCC(=O)N[C@@H](CCC(=O)NCCCC[C@H](NC(=O)[C@H](Cc1c[nH]cn1)NC(=O)[C@H](C)NC(=O)[C@H](Cc1ccccc1)NC(=O)[C@H](Cc1ccc(O)cc1)NC(=O)[C@@H](NC(=O)[C@H](C)NC(=O)[C@H](CCC(=O)O)NC(=O)[C@H](CCC(=O)O)NC(=O)[C@H](CC(=O)O)NC(=O)/C=C/C(=O)O)C(C)C)C(=O)N[C@@H](CC(=O)O)C(=O)N[C@H](C(=O)N[C@H](C(=O)N[C@@H](Cc1c[nH]c2ccccc12)C(=O)O)[C@@H](C)CC)[C@@H](C)CC)C(=O)O [BX-70] (Fumaroyl-DEEAVYFAHK([γGlu-AEEA-AEEA-Palmitoyl])DIIW-OH) | – | – | – | 41 | 1701 | T1/2=41min; | -15.8 | 13.5 | – |
| CCCCCCCCCCCC(=O)NCCOCCOCC(=O)NCCOCCOCC(=O)N[C@@H](CCC(=O)NCCCC[C@H](NC(=O)[C@H](Cc1c[nH]cn1)NC(=O)[C@H](C)NC(=O)[C@H](Cc1ccccc1)NC(=O)[C@H](Cc1ccc(O)cc1)NC(=O)[C@@H](NC(=O)[C@H](C)NC(=O)[C@H](CCC(=O)O)NC(=O)[C@H](CCC(=O)O)NC(=O)[C@H](CC(=O)O)NC(=O)/C=C/C(=O)O)C(C)C)C(=O)N[C@@H](CC(=O)O)C(=O)N[C@H](C(=O)N[C@H](C(=O)N[C@@H](Cc1c[nH]c2ccccc12)C(=O)O)[C@@H](C)CC)[C@@H](C)CC)C(=O)O [BX-71] (Fumaroyl-DEEAVYFAHK([γGlu-AEEA-AEEA-Lauroyl])DIIW-OH) | – | – | – | 23 | 2049 | T1/2=23min; | -9.66 | -9.49 | – |
| CC[C@H](C)[C@H](NC(=O)[C@@H](NC(=O)[C@H](CC(=O)O)NC(=O)[C@H](CC(C)C)NC(=O)[C@H](Cc1c[nH]cn1)NC(=O)[C@H](C)NC(=O)[C@H](Cc1ccccc1)NC(=O)[C@H](Cc1ccc(O)cc1)NC(=O)[C@@H]1CCCCNC(=O)CC[C@H](NC(=O)[C@H](CC(=O)O)NC(=O)CCC(=O)O)C(=O)N[C@@H](CCC(=O)O)C(=O)N[C@@H](C)C(=O)N1)C(C)C)C(=O)N[C@@H](Cc1c[nH]c2ccccc12)C(=O)O [BX-76] (Suc-DEEAKYFAHLDVIW-OH; lactam 2-5) | – | – | – | 3.6 | 250 | – | -20.9 | -7.56 | – |
| CC[C@H](C)[C@H](NC(=O)[C@H](CC(=O)O)NC(=O)[C@H](CCCCNC(=O)CC[C@H](NC(=O)COCCOCCNC(=O)COCCOCCNC(=O)CCCCCCCCCCCCCCCCC(=O)O)C(=O)O)NC(=O)[C@H](Cc1c[nH]cn1)NC(=O)[C@H](C)NC(=O)[C@H](Cc1ccccc1)NC(=O)[C@H](Cc1ccc(O)cc1)NC(=O)[C@@H](NC(=O)[C@H](C)NC(=O)[C@H](CCC(=O)O)NC(=O)[C@H](CCC(=O)O)NC(=O)[C@H](CC(=O)O)NC(=O)/C=C/C(=O)O)C(C)C)C(=O)N[C@H](C(=O)N[C@@H](Cc1c[nH]c2ccccc12)C(N)=O)[C@@H](C)CC [BX-86] (Fumaroyl-DEEAVYFAHK([γGlu-AEEA-AEEA-C18 diacid])DIIW-NH2) | – | – | – | 63 | 1146 | – | 18.3 | 10.4 | – |
| CC[C@H](C)[C@H](NC(=O)[C@H](CC(=O)O)NC(=O)[C@H](CC(C)C)NC(=O)[C@H](Cc1c[nH]cn1)NC(=O)[C@H](C)NC(=O)[C@H](Cc1ccccc1)NC(=O)[C@H](Cc1ccc(O)cc1)NC(=O)[C@@H](NC(=O)[C@H](C)NC(=O)[C@H](CCC(=O)O)NC(=O)[C@H](CCC(=O)O)NC(=O)[C@H](CC(=O)O)NC(=O)CCC(=O)NCCNC(=O)COCCOCCNC(=O)COCCOCCNC(=O)CC[C@H](NC(=O)CCCCCCCCCCCCCCCCC(=O)O)C(=O)O)C(C)C)C(=O)N[C@H](C(=O)N[C@@H](Cc1c[nH]c2ccccc12)C(=O)O)[C@@H](C)CC [BX-256] ({C18 diacid-γGlu-AEEA-AEEA-Ethylenediamine-Suc}-DEEAVYFAHLDIIW-OH) | – | – | – | – | – | – | – | – | Developed rapid breathing and limbs turned pale purple, and developed convulsions at 16 minutes after administration; died at 27 minutes after administration; also recorded: Developed rapid breathing, the limbs and face turned purple, and had weak limbs at 15 minutes after administration; died at 21 minutes after administration |
